From patent US20100022457A1 (Bristol-Myers Squibb Company, priority 2006, published 2010) come the findings set out here.

The structures appear in SMILES notation. Where two headings read alike, the source gives them in different places. Where a SMILES comes first, the peptide text is derived from it. [ ]: non-standard residue; d: D form. Ala(6-(2-MePh)pyridin-3-yl) = Cc1ccccc1-c1ccc(C[C@H](N)C(=O)O)cn1; Bip(2'-Et-4'-OMe) = CCc1cc(OC)ccc1-c1ccc(C[C@H](N)C(=O)O)cc1; αMePhe(2-F) = C[C@](N)(Cc1ccccc1F)C(=O)O; Aib = CC(C)(N)C(=O)O

Data set [1] in a line: Solubility of the compound of SEQ ID NO:9 in the presence of Zn(II) / Zn adduct. The format is physicochemical. The note with it: pH 6.8, 50 mM phosphate buffer. As for the experimental part: The concentration of the compound of SEQ ID NO:9 was analyzed by a Waters HPLC system (Waters 2690 Separations Module and Waters 996 Photodiode Array Detector). A gradient method was used where solvent A is 0.05% trifluoroacetic acid (TFA, Sigma) in water, and solvent B is 0.05% TFA in acetone nitrile (ACN, Sigma). Light at a wavelength of 220 nm was used to detect the absorption of the compound of SEQ ID NO:9.
Once the Zn/Compound of SEQ ID NO:9 adduct was formed, formulation development studies were conducted in order to evaluate the solubility of the compound of SEQ ID NO:9 in the presence of Zn(II). An excess amount of the compound of SEQ ID NO:9 was suspended in pH 6.8, 50 mM phosphate buffer. The suspension was then placed on an orbital shaker (Model, 100 RPM) at ambient temperature for 12 hours. The suspension was then centrifuged (Model, speed) and the saturated the clear supernatant of the compound of SEQ ID NO:9 was collected into 10 ml centrifuge tubes. A predetermined amount of zinc acetate solution (50 mM, pH 6.8 phosphate buffer) was added into the saturated solution and then precipitated. The concentration of the compound of SEQ ID NO:9 in solution was obtained by centrifuging the suspension and analyzing the clear supernatants by HPLC. […]

A short description of data set [2]: Dog pharmacokinetic study (intravenous and subcutaneous, 67 μg/kg). The conditions noted are these: for half-life: read-out: t1/2 (converted). In kind it is in vivo. As for the experimental part: The pharmacokinetic parameters of the compound of SEQ ID NO:9 were determined in male beagle dogs (n=4, 14±1 kg). Following an overnight fast, each animal received the compound of SEQ ID NO:9 either as an intravenous bolus via femoral vein (67 μg/kg) or by subcutaneous injection given at near the shoulder blades (67 μg/kg). Each animal received both intravenous and subcutaneous doses with a one-week washout between doses following a crossover design. […] Serial blood samples were collected in EDTA-containing microcentrifuge tubes at predose, 0.083, 0.25, 0.5, 0.75, 1, 2, 4, 6, 8, 24, and 30 hours post-dose after intravenous administration; at predose, 0.25, 0.5, 0.75, 1, 2, 4, 6, 8, 24, and 30 hours post-dose after subcutaneous administration. Approximately 0.3 mL of blood was collected at each time point. Blood samples were immediately centrifuged at 4° C. The obtained plasma was frozen with dry ice and stored at −20° C. Plasma drug levels were determined using the LC-MS/MS assay described above.
Plasma samples from in vivo dog study were prepared for analysis by precipitating plasma proteins with two volumes of acetonitrile containing an internal standard. The samples were vortex mixed and removed the precipitated proteins by centrifugation. The resulting supernatants were transferred to a 96-well plate and 10 μL were injected for analysis. Samples were prepared with the Packard Multiprobe II and Quadra 96 Liquid Handling System.
The HPLC system consisted of two Shimadzu LC10AD pumps (Columbia, Md.), a CTC PAL autosampler (Leap Technologies, Switzerland). The column used was a YMC Hydrosphere C18 (2.0×50 mm, 3 μm) (YMC, Inc., Milford, Mass.). The column temperature was maintained at 50° C. and the flow rate was 0.3 mL/minute. The mobile phase A consisted of 10 mM ammonium formate and 0.1% formic acid in water and mobile phase B consisted of 0.1% formic acid in acetonitrile. The initial mobile phase composition was 5% B, and remained at 5% B for one minute to equilibrate the column. The composition was ramped to 95% B over two minutes and held there for one additional minute. The mobile phase was then returned to initial conditions in one minute. Total analysis time was five minutes. A switching valve was used. The eluents between 0-1 minute were diverted to the waste.
The HPLC was interfaced to a Sciex API 4000 mass spectrometer, (Applied Biosystems, Foster City, Calif.) and was equipped with a TurboIonspray ionization source. Ultra high purity nitrogen was used as the nebulizing and turbo gas. The temperature of turbo gas was set at 300° C. and the interface heater was set at 60° C. Data acquisition utilized selected reaction monitoring (SRM). Ions representing the (M+2H)^2+ species for the compound of SEQ ID NO:9, and (M+2H)^2+ for BMS-501143 (IS) were selected in Q1 and were collisionally dissociated with high purity nitrogen at a pressure of 3.5×10^−3 torr to form specific product ions which were subsequently monitored by Q3.
The standard curve concentrations, ranging from 1 to 1000 nM and from 4 to 5000 nM, were used for the in vivo samples obtained from low and high doses, respectively. The curves were fitted with a quadratic regression weighted by reciprocal […]. Standards were analyzed in duplicate. Quality control (QC) samples, prepared in blank matrix at the same concentrations as the standard were also analyzed in each analytical set. For the compound of SEQ ID NO:9, the calculated concentrations of more than 80% of the QCs were within 20% of nominal concentration, indicating acceptable assay performance.
The compound of SEQ ID NO:9 plasma concentration vs. time data were analyzed by noncompartmental methods using the […]™ software program. The Cmax and Tmax values were recorded directly from experimental observations. The AUC0-n and AUCtot values were calculated using a combination of linear and log trapezoidal summations. […]

A short description of data set [3]: Exposure during ipGTT in ob/ob mice. The format is in vivo, mouse. The note with it: sc.
[4] abbreviates: male, beagle, plasma, 67 ug/kg, dog, intravenous 67 μg/kg, propylene glycol:phosphate buffer (50:50).
Setting [5] is: male, beagle, plasma, sc, 67 ug/kg, dog, subcutaneous 67 μg/kg, propylene glycol:phosphate buffer (50:50).

As to `CCc1cc(OC)ccc1-c1ccc(C[C@H](NC(=O)[C@H](CC(=O)O)NC(=O)[C@H](CO)NC(=O)[C@@H](NC(=O)[C@](C)(Cc2ccccc2F)NC(=O)[C@@H](NC(=O)CNC(=O)[C@H](CCC(=O)O)NC(=O)C(C)(C)NC(=O)[C@@H](N)Cc2c[nH]cn2)[C@@H](C)O)[C@@H](C)O)C(=O)N[C@@H](Cc2ccc(-c3ccccc3C)nc2)C(N)=O)cc1` [SEQ ID NO: 9] (H-H[Aib]EGT[αMePhe(2-F)]TSD[Bip(2'-Et-4'-OMe)][Ala(6-(2-MePh)pyridin-3-yl)]-NH2), the “apparent solubility with addition of Zn (II)” value in data set [1] is “continued to decrease until below the detection limit of HPLC”. Besides, the solubility at 12 h in data set [1] (read-out: concentration of saturated solution (solubility)) was 17 µg/mL. Also, the “Exposure in dogs (sc@67 μg/kg)” value in data set [2] (Table I, vehicle 0.2 M Tris buffer (pH 8.0)) was determined as 0.452 µM·h. Also, the “Exposure in dogs (sc@67 μg/kg)” value in data set [2] (Table II, vehicle propylene glycol/pH 7.4 phosphate buffer (1:1)) stood at 1.23 µM·h. The “Vss as % of extracellular fluid” value in data set [2] (dog, extracellular fluid 0.14 L/kg) was 71 % of extracellular fluid. In addition, the “systemic clearance as % of liver blood flow” value in data set [2] (dog, liver blood flow 31 mL/min/kg) is listed as 3.2 % of liver blood flow. Further, the “Vss as times of vascular fluid” value in data set [2] (dog, vascular fluid 0.05 L/kg) was 2 times of vascular fluid. In data set [2] (setting [4]), the AUC (in general, the area under the concentration-time curve, a measure of exposure) was determined as 1.27 ± 0.299 µM·h; the MRT (as a rule, a mean duration of stay, worked out from the concentration-time curve) was 3 ± 1 h; the half-life is 5.1 ± 0.5 h. Further, in data set [2] (male, beagle, plasma, 67 ug/kg, dog, intravenous 67 μg/kg, propylene glycol:phosphate buffer (50:50), read-out: CLp), the clearance was determined as 0.6 ± 0.1 mL/min/kg. Besides, in data set [2] (male, beagle, plasma, 67 ug/kg, dog, intravenous 67 μg/kg, propylene glycol:phosphate buffer (50:50), read-out: VSS), the Vd was found to be 0.1 ± 0.03 L/kg. For the same compound, in data set [2] (setting [5]), the exposure (AUC) was 1.22 ± 0.276 µM·h; the MRT amounted to 12.5 ± 2.4 h; the Tmax (in general, the time from dosing to the highest level) worked out at 5 ± 1 h; the half-life was 6.9 ± 1.3 h. Also, the Cmax in data set [2] (male, beagle, plasma, sc, 67 ug/kg, dog, subcutaneous 67 μg/kg, text of b538, read-out: maximum plasma concentration (Cmax)) was determined as 90 ± 29 nM. Moreover, the clearance in data set [2] (male, beagle, whole blood, 67 ug/kg, dog, intravenous 67 μg/kg, propylene glycol:phosphate buffer (50:50), read-out: CLB (systemic clearance)) worked out at 0.9 ± 0.2 mL/min/kg. Further, the “Exposure/dose during ipGTT in ob/ob mice” value in data set [3] amounted to 18 nM*h/nmol/kg.
